# Data published in patent US5114918A, “Endothelin antagonistic cyclic pentapeptides” (Banyu Pharmaceutical Co., Ltd., priority 1989, dated 1992).
# Numbered stars: 1 amine (or outer) side, 2 acyl side, 3 side chain; on linkers, the order of the positions; unused ones are H or OH. Square brackets hold non-standard residues; d marks the D form. Peptide text beside a SMILES is read from it. * marks the point of attachment. X2 = CNC(=O)Cn1cc(C[C@@H](N[*:1])C(=O)[*:2])c2ccccc21; X6 = COC(=O)Cn1cc(C[C@@H](N[*:1])C(=O)[*:2])c2ccccc21; X3 = NC(=O)Cn1cc(C[C@@H](N[*:1])C(=O)[*:2])c2ccccc21; Gly(N-CH2CH2-imidazol-4-yl) = O=C(O)CNCCc1c[nH]cn1; X4 = O=C1Nc2ccccc2C1C[C@@H](N[*:1])C(=O)[*:2]; dGly(2-thienyl) = N[C@@H](C(=O)O)c1cccs1; X1 = CC[C@](N[*:1])(C(=O)[*:2])c1cccs1; X5 = O=C([C@H](N[*:1])C1=CCC=CC1)[*:2]; dGly(cPent) = N[C@@H](C(=O)O)C1CCCC1; X7 = O=C([C@H](N[*:1])c1ccco1)[*:2]; Hyp = O=C(O)[C@@H]1C[C@@H](O)CN1; Gly(N-cPent) = O=C(O)CNC1CCCC1; NMeL = CN[C@@H](CC(C)C)C(=O)O; NMeM = CN[C@@H](CCSC)C(=O)O; N(iPr)Gly = CC(C)NCC(=O)O; NMeA = CN[C@@H](C)C(=O)O; Thz = O=C(O)[C@@H]1CSCN1; Boc = CC(C)(C)OC(=O)*; βAla = NCCC(=O)O; Sar = CNCC(=O)O; Moc = COC(=O)*
# Target: T1, endothelin receptor (membrane of smooth muscle tissue of porcine aorta) (Sus scrofa, UniProt Q29010)
# T1 construct: from tissue; host or cells: smooth muscle tissue of porcine aorta (membrane fraction)
# T1 sequence (Q29010 21-427): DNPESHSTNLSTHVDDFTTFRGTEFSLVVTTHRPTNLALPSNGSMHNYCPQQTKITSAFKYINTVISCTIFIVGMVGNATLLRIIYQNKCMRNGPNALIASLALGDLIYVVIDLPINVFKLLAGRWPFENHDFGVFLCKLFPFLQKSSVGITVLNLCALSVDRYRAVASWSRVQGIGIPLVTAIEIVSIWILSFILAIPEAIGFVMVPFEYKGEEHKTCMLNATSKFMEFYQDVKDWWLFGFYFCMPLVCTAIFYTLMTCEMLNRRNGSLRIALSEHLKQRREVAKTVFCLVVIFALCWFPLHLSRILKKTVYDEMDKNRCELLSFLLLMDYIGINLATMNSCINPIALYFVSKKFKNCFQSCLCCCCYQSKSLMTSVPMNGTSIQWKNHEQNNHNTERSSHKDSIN
# Assay: Endothelin binding inhibition test (125I-endothelin-1, porcine aorta smooth muscle membrane)
# Conditions: 1.1 μM of the test compound, porcine aorta smooth muscle membrane, 25° C, 4 hours; for inhibition at 1.1 µM: read-out: 125I-endothelin-1 binding inhibition, Inhibition (%)
# Procedure: Endothelin binding inhibition test
# The smooth muscle tissue of porcine aorta was homogenized in a buffer solution of 10 mM MOPS, pH 7.4, at 4° C. by a polytron. To the homogenate, sucrose was added to a concentration of 20%, and the mixture was centrifuged at 1,000×g for 15 minutes, and the supernatant was further centrifuged at 10,000×g for 15 minutes. The supernatant thereof was further centrifuged at 90,000×g for 40 minutes. The membrane precipitate thereby obtained was suspended in a buffer solution of 5 mM HEPES/Tris, pH 7.4, at a concentration of 25 mg/ml.
# Then, 16 μl of this membrane suspension was added to 340 μl of 50 mM Tris/HCl buffer, pH 7.4, containing 10 μM calcium chloride, 10 μM magnesium chloride, 0.1 mM PMSF, 1 μM pepstatin A, 2 μM leupeptin, 1 mM 1,10-phenanthroline and 0.1% bovine serum albumin. To this suspension, 4 μl of (A) endothelin-1 (for nonspecific binding: 0.2 μM as the final concentration), (B) buffer solution A (for total control binding), or (C) a test compound (1.1 μM as the final concentration), was added. Further, to each suspension, 40 μl of ^125 I-endothelin-1 (12000-18000 cpm) was added. These mixtures were incubated at 25° C for 4 hours, then subjected to filtration on a glass filter GF/C and then washed with 5 mM HEPES/Tris, pH 7.4, containing 0.3% bovine serum albumin. Then, the radioactivity trapped by the glass filter was measured, and the ^125 I-endothelin-1 binding inhibition D (%) at 1.1 μM of the test compound was determined by the following equation. [formula] Each test was performed in triplicate.
compound,measurement,value
"CC(C)C[C@@H]1NC(=O)[C@@H](C(C)C)NC(=O)CCNC(=O)[C@@H](CC(=O)O)NC(=O)[C@@H](Cc2c[nH]c3ccccc23)NC1=O [Example 66, cyclo(-DTro-DAsp-β-Ala-DVal-Leu-)] (cyclo(L[dW][dD][βAla][dV]))",inhibition at 1.1 µM,38%
"CC(C)C[C@@H]1NC(=O)[C@@H](c2cccs2)NC(=O)[C@@H]2CCCN2C(=O)[C@@H](CC(=O)O)NC(=O)[C@@H](Cc2c[nH]c3ccccc23)NC1=O [Example 67, cyclo(-DTrp-DAsp-Pro-DThg-Leu-)] (cyclo(L[dW][dD]P[dGly(2-thienyl)]))",inhibition at 1.1 µM,82%
"CC(C)C[C@@H]1NC(=O)[C@@H](C(C)C)NC(=O)[C@@H]2CSCN2C(=O)[C@@H](CC(=O)O)NC(=O)[C@@H](Cc2c[nH]c3ccccc23)NC1=O [Example 68, cyclo(-DTrp-DAsp-Thz-DVal-Leu-)] (cyclo(L[dW][dD][Thz][dV]))",inhibition at 1.1 µM,86%
"CC(C)C[C@H]1C(=O)N[C@H](Cc2c[nH]c3ccccc23)C(=O)N[C@H](CC(=O)O)C(=O)N2CCC[C@H]2C(=O)N[C@H](C(C)C)C(=O)N1C [Example 69, cyclo(-DTrp-DAsp-Pro-DVal-MeLeu-)] (cyclo([NMeL][dW][dD]P[dV]))",inhibition at 1.1 µM,85%
"CSCC[C@H]1C(=O)N[C@H](C(C)C)C(=O)N[C@@H](CC(C)C)C(=O)N[C@H](Cc2c[nH]c3ccccc23)C(=O)N[C@H](CC(=O)O)C(=O)N1C [Example 70, cyclo(-DTrp-DAsp-MeMet-DVal-Leu-)] (cyclo(L[dW][dD][NMeM][dV]))",inhibition at 1.1 µM,85%
"CC(C)C[C@@H]1NC(=O)[C@@H](c2cccs2)NC(=O)CN(C)C(=O)[C@@H](CC(=O)O)NC(=O)[C@@H](Cc2c[nH]c3ccccc23)NC1=O [Example 72, cyclo(-DTrp-DAsp-Sar-DThg-Leu-)] (cyclo(L[dW][dD][Sar][dGly(2-thienyl)]))",inhibition at 1.1 µM,79%
"CC(C)C[C@@H]1NC(=O)[C@@H](c2cccs2)NC(=O)CN(C2CCCC2)C(=O)[C@@H](CC(=O)O)NC(=O)[C@@H](Cc2c[nH]c3ccccc23)NC1=O [Example 73, cyclo(-DTrp-DAsp-CpGly-DThg-Leu-)] (cyclo(L[dW][dD][Gly(N-cPent)][dGly(2-thienyl)]))",inhibition at 1.1 µM,85%
"CC(C)C[C@@H]1NC(=O)[C@@H](C2=CCC=CC2)NC(=O)[C@@H]2CCCN2C(=O)[C@@H](CC(=O)O)NC(=O)[C@@H](Cc2c[nH]c3ccccc23)NC1=O [Example 74, cyclo(-DTrp-DAsp-Pro-DDpg-Leu-)] (cyclo(L[dW][dD]P[X5]))",inhibition at 1.1 µM,89%
"CC(C)C[C@@H]1NC(=O)[C@@H](c2cccs2)NC(=O)CN(C(C)C)C(=O)[C@@H](CC(=O)O)NC(=O)[C@@H](Cc2c[nH]c3ccccc23)NC1=O [Example 78, cyclo(-DTrp-DAsp-^i PrGly-DThg-Leu-)] (cyclo(L[dW][dD][N(iPr)Gly][dGly(2-thienyl)]))",inhibition at 1.1 µM,85%
"CC(C)C[C@@H]1NC(=O)[C@@H](c2cccs2)NC(=O)[C@@H]2C[C@@H](O)CN2C(=O)[C@@H](CC(=O)O)NC(=O)[C@@H](Cc2c[nH]c3ccccc23)NC1=O [Example 79, cyclo(-DTrp-DAsp-trans-Hyp-DThg-Leu-)] (cyclo([Hyp][dGly(2-thienyl)]L[dW][dD]))",inhibition at 1.1 µM,88%
"CC(C)C[C@@H]1NC(=O)[C@@H](c2ccco2)NC(=O)[C@@H]2CCCN2C(=O)[C@@H](CC(=O)O)NC(=O)[C@@H](Cc2c[nH]c3ccccc23)NC1=O [Example 80, cyclo(-DTrp-DAsp-Pro-DFug-Leu-)] (cyclo(L[dW][dD]P[X7]))",inhibition at 1.1 µM,83%
"CC(C)C[C@@H]1NC(=O)[C@@H](C2CCCC2)NC(=O)[C@@H]2CCCN2C(=O)[C@@H](CC(=O)O)NC(=O)[C@@H](Cc2c[nH]c3ccccc23)NC1=O [Example 81, cyclo(-DTrp-DAsp-Pro-DCpg-Leu-)] (cyclo(L[dW][dD]P[dGly(cPent)]))",inhibition at 1.1 µM,86%
"CC[C@]1(c2cccs2)NC(=O)[C@@H]2CCCN2C(=O)[C@@H](CC(=O)O)NC(=O)[C@@H](Cc2c[nH]c3ccccc23)NC(=O)[C@H](CC(C)C)NC1=O [Example 82, cyclo(-DTrp-DAsp-Pro-DEtg-Leu-)] (cyclo(L[dW][dD]P[X1]))",inhibition at 1.1 µM,81%
"CC(C)C[C@@H]1NC(=O)[C@@H](c2cccs2)NC(=O)CN(CC(=O)O)C(=O)[C@@H](CC(=O)O)NC(=O)[C@@H](Cc2c[nH]c3ccccc23)NC1=O [Example 83, cyclo(-DTrp-DAsp-CmGly-DThg-Leu-)]",inhibition at 1.1 µM,82%
"CC(C)[C@H]1NC(=O)[C@@H]2CCCN2C(=O)[C@@H](CC(=O)O)NC(=O)[C@@H](Cc2c[nH]c3ccccc23)NC(=O)[C@H](Cc2c[nH]cn2)NC1=O [Example 84, cyclo(-DTrp-DAsp-Pro-DVal-His)] (cyclo(H[dW][dD]P[dV]))",inhibition at 1.1 µM,43%
"CC(C)C[C@@H]1NC(=O)[C@@H](C(C)C)NC(=O)CN(CCc2c[nH]cn2)C(=O)[C@@H](CC(=O)O)NC(=O)[C@@H](Cc2c[nH]c3ccccc23)NC1=O [Example 85, cyclo(-DTrp-DAsp-IeGly-DVal-Leu-)] (cyclo(L[dW][dD][Gly(N-CH2CH2-imidazol-4-yl)][dV]))",inhibition at 1.1 µM,82%
"COC(=O)n1cc(C[C@H]2NC(=O)[C@H](CC(C)C)NC(=O)[C@@H](C(C)C)NC(=O)[C@@H]3CCCN3C(=O)[C@@H](CC(=O)O)NC2=O)c2ccccc21 [Example 86, cyclo(-DTrp(COOCH3)-DAsp-Pro-DVal-Leu-)] (cyclo(L[dW](Moc)[dD]P[dV]))",inhibition at 1.1 µM,90%
"CC(C)C[C@@H]1NC(=O)[C@@H](C(C)C)NC(=O)[C@@H]2CCCN2C(=O)[C@@H](CC(=O)O)NC(=O)[C@@H](Cc2cn(C(=O)OC(C)(C)C)c3ccccc23)NC1=O [Example 87, cyclo(-DTrp(COO^t Bu)-DAsp-Pro-DVal-leu-)] (cyclo(L[dW](Boc)[dD]P[dV]))",inhibition at 1.1 µM,34%
"CC(C)C[C@@H]1NC(=O)[C@@H](C(C)C)NC(=O)[C@@H]2CCCN2C(=O)[C@@H](CC(=O)O)NC(=O)[C@@H](CC2C(=O)Nc3ccccc32)NC1=O (stereo partly drawn) [Example 88, cyclo(-DTrp(O)-Dsp-Pro-DVal-Leu-)] (cyclo(L[X4][dD]P[dV]))",inhibition at 1.1 µM,78%
"CC(C)C[C@@H]1NC(=O)[C@@H](C(C)C)NC(=O)[C@H](C)N(C)C(=O)[C@@H](CC(=O)O)NC(=O)[C@@H](CC2C(=O)Nc3ccccc32)NC1=O (stereo partly drawn) [Example 89, cyclo(-DTrp(O)-DAsp-MeAla-DVal-Leu-)] (cyclo(L[X4][dD][NMeA][dV]))",inhibition at 1.1 µM,67%
"COC(=O)Cn1cc(C[C@H]2NC(=O)[C@H](CC(C)C)NC(=O)[C@@H](C(C)C)NC(=O)[C@@H]3CCCN3C(=O)[C@@H](CC(=O)O)NC2=O)c2ccccc21 [Example 90, cyclo(-DTrp(CH2 COOCH3)-DAsp-Pro-DVal-Leu-)] (cyclo(L[X6][dD]P[dV]))",inhibition at 1.1 µM,35%
"CC(C)C[C@@H]1NC(=O)[C@@H](C(C)C)NC(=O)[C@@H]2CCCN2C(=O)[C@@H](CC(=O)O)NC(=O)[C@@H](Cc2cn(CC(N)=O)c3ccccc23)NC1=O [Example 91, cyclo(-DTrp(CH2 CONH2)-DAsp-Pro-DVal-Leu-)] (cyclo(L[X3][dD]P[dV]))",inhibition at 1.1 µM,23%
"CNC(=O)Cn1cc(C[C@H]2NC(=O)[C@H](CC(C)C)NC(=O)[C@@H](C(C)C)NC(=O)[C@@H]3CCCN3C(=O)[C@@H](CC(=O)O)NC2=O)c2ccccc21 [Example 92, cyclo(-DTrp(CH2 CONHCH3)-DAsp-Pro-DVal-Leu-)] (cyclo(L[X2][dD]P[dV]))",inhibition at 1.1 µM,28%
cyclo(-DTrp(CHO)-DAsp-Met(O)-DVal-Leu-) [Example 77],"125I-endothelin-1 binding inhibition, Inhibition (%)",78%
